# Assay results taken from US6770299B1, “Lipid matrix-drug conjugates particle for controlled release of active ingredient” (PharmaSol GmbH, priority 1999, dated 2004).
# Tests used:
# solid tumors = conditions: oral preparation, phase 1 study; cited from earlier work
# [1] = system: HL 60 tumor cells (human myeloid leukemia cell line); test: Differentiation of HL 60 tumor cells, NBT reduction; type: cell-based; conditions: HL 60 cells, free tributyrin dissolved in ethanol
# Description: The effectiveness of tributyrin drug vehicles was measured in HL 60 tumor cells (human myeloid leukemia cell line). HL 60 cells are a sensitive indicator of the effect of tributyrin. It brings about a differentiation of the tumor cells to granulocyte-like cells. The latter have the property of reducing NBT (nitro-blue tetrazolium) to a blue dye (H. P. Koeffler et al. Blood 62 1 (983) 709-721). Tributyrin-compritol particles, consisting of equal parts of tributyrin and compritol (glycerine tribehenate) were prepared as in Example 1. The overall lipid concentration was 5%, the Poloxamer 188 concentration likewise 5%. The particle size was 147 nm (PCS diameter), the polydispersion index 0.321. The differentiation effect was compared with that of free tributyrin, dissolved in ethanol. […] An adequate quantity of tributyrin-compritol nanoparticle dispersion was, like the corresponding quantities of surfactant solution and pure compritol particle dispersion, added to HL 60 cells and the NBT reduction ascertained after 6 days' incubation time at 37° C. and 5% carbon dioxide content.
smiles,measurement,setting,value
"CCCC(=O)OCC(COC(=O)CCC)OC(=O)CCC [tributyrin, 1,2,3 butyric acid glycerol ester]",tumor regression,solid tumors,No significant tumor regression
same,"effective 50% dosage (ED 50%), differentiation effect",[1],130 µM
